Measurements as given in ChEMBL document CHEMBL1201862, “PubChem BioAssay data set” (2004).
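Briefly, cells in 96-well plates were exposed to five compound concentrations for 48 h, and endpoints were estimated by linear interpolation. GI50 is the concentration that inhibits growth by half.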 Activity calls are given as the source filed them. Cut-off read from the data, not from the text of the source: active = GI50 up to about 1.1 µM and inactive = higher.

Key:
Assay in all cases: NCI-60 cell line screen, 48 h
[1] = test system: UO-31
[2] = test system: HCT-15
[3] = test system: RXF 393
[4] = test system: A498
[5] = test system: HT-29
[6] = test system: OVCAR-5
[7] = test system: PC-3
[8] = test system: SK-OV-3
[9] = test system: KM12
[10] = test system: OVCAR-8
[11] = test system: MDA-MB-231
[12] = test system: M14
[13] = test system: MDA-MB-435
[14] = test system: NCI-H460
[15] = test system: DU-145
[16] = test system: ACHN
[17] = test system: NCI/ADR-RES
[18] = test system: SW-620
[19] = test system: OVCAR-3
[20] = test system: SF-295
[21] = test system: LOX IMVI
[22] = test system: HOP-62
[23] = test system: HCC 2998
[24] = test system: HOP-92
[25] = test system: HL-60
[26] = test system: SR
[27] = test system: T47D
[28] = test system: MCF7
[29] = test system: Hs-578T
[30] = test system: MDA-N
[31] = test system: MOLT-4
[32] = test system: SF-268
[33] = test system: UACC-62
[34] = test system: IGROV-1
[35] = test system: COLO 205
[36] = test system: BT-549
[37] = test system: SNB-19
[38] = test system: CAKI-1
[39] = test system: TK-10
[40] = test system: SK-MEL-2
[41] = test system: HCT-116
[42] = test system: K562
[43] = test system: SK-MEL-28
[44] = test system: SK-MEL-5
[45] = test system: U-251
[46] = test system: NCI-H522
[47] = test system: CCRF-CEM
[48] = test system: Malme-3M
[49] = test system: A549
[50] = test system: EKVX
[51] = test system: SN12C
[52] = test system: 786-0
[53] = test system: SF-539
[54] = test system: SNB-75
[55] = test system: UACC-257
[56] = test system: NCI-H23
[57] = test system: NCI-H226
[58] = test system: OVCAR-4
[59] = test system: RPMI-8226

## CCCNc1[nH]c(C(C)=O)c(N)c1C(=S)Nc1ccccc1
[1]
  GI50: 0.782 µM (active)
[2]
  GI50: 31.8 µM
[3]
  GI50: 20.4 µM (inactive)
[4]
  GI50: 27.4 µM (inactive)
[5]
  GI50: 20 µM (inactive)
[6]
  GI50: 68.9 µM (inactive)
[7]
  GI50: > 100 µM (inactive)
[8]
  GI50: 45.5 µM (inactive)
[9]
  GI50: 34 µM (inactive)
[10]
  GI50: 27.7 µM (inactive)
[11]
  GI50: 36.6 µM (inactive)
[12]
  GI50: 19.4 µM (inactive)
[13]
  GI50: 21 µM (inactive)
[14]
  GI50: 33.9 µM (inactive)
[15]
  GI50: 54.7 µM (inactive)
[16]
  GI50: 40.8 µM (inactive)
[17]
  GI50: 28.7 µM (inactive)
[18]
  GI50: > 100 µM (inactive)
[19]
  GI50: 42.4 µM (inactive)
[20]
  GI50: 43.3 µM (inactive)
[21]
  GI50: 23.3 µM (inactive)
[22]
  GI50: 42 µM (inactive)
[23]
  GI50: > 100 µM (inactive)
[24]
  GI50: 34 µM (inactive)
[25]
  GI50: 37.7 µM (inactive)
[26]
  GI50: 17.2 µM (inactive)
[27]
  GI50: 47.1 µM (inactive)
[28]
  GI50: 19.2 µM (inactive)
[29]
  GI50: 39.3 µM (inactive)
[30]
  GI50: 41.4 µM (inactive)
[31]
  GI50: 69.2 µM (inactive)
[32]
  GI50: 23.3 µM (inactive)
[33]
  GI50: 17.9 µM (inactive)
[34]
  GI50: 0.507 µM (active)
[35]
  GI50: 31.6 µM (inactive)
[36]
  GI50: 24.2 µM (inactive)
[37]
  GI50: 38.4 µM (inactive)
[38]
  GI50: 46.8 µM (inactive)
[39]
  GI50: 39.1 µM (inactive)
[40]
  GI50: 9.2 µM (inactive)
[41]
  GI50: 34.8 µM (inactive)
[42]
  GI50: 43.4 µM (inactive)
[43]
  GI50: 24.7 µM (inactive)
[44]
  GI50: 22.7 µM (inactive)
[45]
  GI50: 31.7 µM (inactive)
[46]
  GI50: 4.15 µM (inactive)
[47]
  GI50: 46.5 µM (inactive)
[48]
  GI50: 28 µM (inactive)
[49]
  GI50: 33.3 µM (inactive)
[50]
  GI50: 35.2 µM (inactive)
[51]
  GI50: 32.8 µM (inactive)
[52]
  GI50: 26.4 µM (inactive)
[53]
  GI50: 10.8 µM (inactive)
[54]
  GI50: 37 µM (inactive)
[55]
  GI50: 30.1 µM (inactive)
[56]
  GI50: 41 µM (inactive)
[57]
  GI50: 21.7 µM (inactive)
[58]
  GI50: 23.1 µM (inactive)

## COc1cccc(CCn2c(N)c(-c3cc(Cl)cc(Cl)c3)c3ccc([N+](=O)[O-])cc3c2=O)c1
[1]
  GI50: 2.68 µM (inactive)
[2]
  GI50: 3.19 µM
[4]
  GI50: 3.56 µM (inactive)
[5]
  GI50: 5.52 µM (inactive)
[6]
  GI50: 18.1 µM (inactive)
[7]
  GI50: 3.1 µM (inactive)
[8]
  GI50: 8.89 µM (inactive)
[9]
  GI50: 3.47 µM (inactive)
[10]
  GI50: 3.81 µM (inactive)
[11]
  GI50: 4.68 µM (inactive)
[12]
  GI50: 3.95 µM (inactive)
[13]
  GI50: 3.57 µM (inactive)
[14]
  GI50: 3.04 µM (inactive)
[15]
  GI50: 2.7 µM (inactive)
[16]
  GI50: 3.26 µM (inactive)
[17]
  GI50: 3.27 µM (inactive)
[18]
  GI50: 4.04 µM (inactive)
[19]
  GI50: 3.13 µM (inactive)
[20]
  GI50: 3.73 µM (inactive)
[21]
  GI50: 3.61 µM (inactive)
[22]
  GI50: 5.21 µM (inactive)
[23]
  GI50: 3.51 µM (inactive)
[24]
  GI50: 2.85 µM (inactive)
[25]
  GI50: 0.811 µM (active)
[26]
  GI50: 0.897 µM (active)
[27]
  GI50: 2.78 µM (inactive)
[28]
  GI50: 4.62 µM (inactive)
[29]
  GI50: 3.19 µM (inactive)
[30]
  GI50: 4.53 µM (inactive)
[31]
  GI50: 1.88 µM (inactive)
[32]
  GI50: 5.86 µM (inactive)
[33]
  GI50: 3.33 µM (inactive)
[34]
  GI50: 3.33 µM (inactive)
[35]
  GI50: 2.03 µM (inactive)
[36]
  GI50: 3.53 µM (inactive)
[37]
  GI50: 3.21 µM (inactive)
[38]
  GI50: 3.5 µM (inactive)
[39]
  GI50: 4.28 µM (inactive)
[40]
  GI50: 3.9 µM (inactive)
[41]
  GI50: 2.84 µM (inactive)
[59]
  GI50: 0.65 µM (active)
[42]
  GI50: 1.75 µM (inactive)
[43]
  GI50: 4.84 µM (inactive)
[44]
  GI50: 2.07 µM (inactive)
[45]
  GI50: 3.63 µM (inactive)
[46]
  GI50: 2.92 µM (inactive)
[47]
  GI50: 0.787 µM (active)
[48]
  GI50: 2.83 µM (inactive)
[49]
  GI50: 4.76 µM (inactive)
[50]
  GI50: 4.69 µM (inactive)
[51]
  GI50: 5 µM (inactive)
[52]
  GI50: 4.91 µM (inactive)
[53]
  GI50: 77.3 µM (inactive)
[54]
  GI50: 4.39 µM (inactive)
[55]
  GI50: 3.33 µM (inactive)
[56]
  GI50: 2.35 µM (inactive)
[57]
  GI50: 3.67 µM (inactive)
[58]
  GI50: 7.55 µM (inactive)
